Reference: patent publication US20230212222A1 (ANYGEN CO., LTD., priority 2020, published 2023)
Square brackets hold non-standard residues; d marks the D form. Peptide text beside a SMILES is read from it. * marks the point of attachment. His(Trt) = N[C@@H](Cc1cn(C(c2ccccc2)(c2ccccc2)c2ccccc2)cn1)C(=O)O; His(τ-CHPh2) = N[C@@H](Cc1cn(C(c2ccccc2)c2ccccc2)cn1)C(=O)O; Tyr(3-NO2) = N[C@@H](Cc1ccc(O)c([N+](=O)[O-])c1)C(=O)O; Tyr(3-Cl) = N[C@@H](Cc1ccc(O)c(Cl)c1)C(=O)O; dPhe(4-Me) = Cc1ccc(C[C@@H](N)C(=O)O)cc1; Octanoyl = CCCCCCCC(=O)*

target: T1, GPR39 (Homo sapiens, UniProt O43194); assay: not given; details: not given
T1 sequence (O43194 1-453): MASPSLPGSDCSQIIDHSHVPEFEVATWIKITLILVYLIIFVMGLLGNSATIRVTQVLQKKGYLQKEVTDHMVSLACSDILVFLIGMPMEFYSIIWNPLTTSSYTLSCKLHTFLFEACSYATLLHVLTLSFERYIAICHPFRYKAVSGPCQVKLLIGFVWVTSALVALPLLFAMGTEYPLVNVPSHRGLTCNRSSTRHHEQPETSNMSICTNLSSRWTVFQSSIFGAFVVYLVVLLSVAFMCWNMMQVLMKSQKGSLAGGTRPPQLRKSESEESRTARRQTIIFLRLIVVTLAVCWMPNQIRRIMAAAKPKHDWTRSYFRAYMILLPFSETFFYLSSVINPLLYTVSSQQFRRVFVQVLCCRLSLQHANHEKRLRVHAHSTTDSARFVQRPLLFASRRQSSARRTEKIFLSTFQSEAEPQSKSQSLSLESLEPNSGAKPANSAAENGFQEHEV

SMILES	ECmax (-fold induction over basal)
CCCCCCCC(=O)NCCCC[C@H](NC(=O)[C@@H](N)Cc1cn(C(c2ccccc2)(c2ccccc2)c2ccccc2)cn1)C(=O)N[C@@H](Cc1ccccc1)C(=O)N[C@@H](CO)C(=O)O [HKFY-50, N6-octanoyl-N2-(Nt-trityl-L-histidyl)-L-lysyl-L-phenylalanyl-L-serine] (H-[His(Trt)]K(Octanoyl)FS-OH)	16.2 ± 1.5 -fold induction over basal
CCCCCCCC(=O)NCCCC[C@H](NC(=O)[C@@H](N)Cc1cn(C(c2ccccc2)(c2ccccc2)c2ccccc2)cn1)C(=O)N[C@@H](CC(C)C)C(=O)N[C@@H](Cc1ccc(O)cc1)C(=O)O [HKFY-51, N6-octanoyl-N2-(Nt-trityl-L-histidyl)-L-lysyl-L-leucyl-L-tyrosine] (H-[His(Trt)]K(Octanoyl)LY-OH)	14.4 ± 1.9 -fold induction over basal
C[C@H](NC(=O)[C@H](CCC(N)=O)NC(=O)[C@H](CCC(N)=O)NC(=O)[C@H](CC(=O)O)NC(=O)[C@H](Cc1ccc(O)cc1)NC(=O)[C@H](Cc1ccccc1)NC(=O)[C@@H](N)Cc1cn(C(c2ccccc2)(c2ccccc2)c2ccccc2)cn1)C(=O)N[C@@H](CCCNC(=N)N)C(=O)N[C@@H](Cc1ccccc1)C(N)=O [HKFY-52, (6S,9S,12S,15S,18S)-1-amino-6-(((S)-1-amino-1-oxo-3-phenylpropan-2-yl)carbamoyl)-18-((S)-2-((S)-2-((S)-2-amino-3-(1-trityl-1H-imidazol-4-yl)propanamido)-3-phenylpropanamido)-3-(4-hydroxyphenyl)propanamido)-12,15-bis(3-amino-3-oxopropyl)-1-imino-9-methyl-8,11,14,17-tetraoxo-2,7,10,13,16-pentaazaicosan-20-oic acid] (H-[His(Trt)]FYDQQARF-NH2)	15.5 ± 2.2 -fold induction over basal
CCCCCCCC(=O)NCCCC[C@H](NC(=O)[C@H](CO)NC(=O)CNC(=O)[C@@H](N)Cc1cn(C(c2ccccc2)(c2ccccc2)c2ccccc2)cn1)C(=O)N[C@@H](Cc1ccccc1)C(=O)N[C@@H](Cc1ccc(O)cc1)C(=O)O [HKFY-53, N6-octanoyl-N2-(Nt-trityl-L-histidylglycyl-L-seryl)-L-lysyl-L-phenylalanyl-L-tyrosine] (H-[His(Trt)]GSK(Octanoyl)FY-OH)	8 ± 2.12 -fold induction over basal
CCCCCCCC(=O)NCCCC[C@H](N)C(=O)N[C@@H](Cc1ccccc1)C(=O)N[C@@H](Cc1ccc(O)cc1)C(=O)O [HKFY-54, N6-octanoyl-L-lysyl-L-phenylalanyl-L-tyrosine] (H-Lys(Octanoyl)-Phe-Tyr-OH)	7.8 ± 2.5 -fold induction over basal
CCCCCCCC(=O)NCCCC[C@H](N)C(=O)N[C@@H](Cc1cn(C(c2ccccc2)(c2ccccc2)c2ccccc2)cn1)C(=O)N[C@@H](Cc1ccccc1)C(=O)N[C@@H](Cc1ccc(O)cc1)C(=O)O [HKFY-55, Na-(N6-octanoyl-L-lysyl)-Nt-trityl-L-histidyl-L-phenylalanyl-L-tyrosine] (H-K(Octanoyl)[His(Trt)]FY-OH)	16.8 ± 2.5 -fold induction over basal

The remaining lines, values ahead:

ECmax (-fold induction over basal)	SMILES
6.76 ± 2.2 -fold induction over basal	CCCCCCCC(=O)NCCCC[C@H](NC(=O)[C@@H](N)Cc1cn(-c2ccccc2)c(-c2ccccc2)n1)C(=O)N[C@H](Cc1ccc(C)cc1)C(=O)N[C@@H](Cc1ccc(O)cc1)C(=O)O [HKFY-59, ((R)-2-((S)-2-((S)-2-amino-3-(1,2-diphenyl-1H-imidazol-4-yl)propanamido)-6-octanamidohexanamido)-3-(p-tolyl)propanoyl)-L-tyrosine]
28.2 ± 2.5 -fold induction over basal	CCCCCCCC(=O)NCCCC[C@H](NC(=O)[C@@H](N)Cc1c[nH]c(-c2ccc(C(C)(C)C)cc2)n1)C(=O)N[C@H](Cc1ccc(C)cc1)C(=O)N[C@@H](Cc1ccc(O)cc1)C(=O)O [HKFY-60, ((R)-2-((S)-2-((S)-2-amino-3-(2-(4-(tert-butyl)phenyl)-1H-imidazol-4-yl)propanamido)-6-octanamidohexanamido)-3-(p-tolyl)propanoyl)-L-tyrosine]
28.1 ± 2.1 -fold induction over basal	CCCCCCCC(=O)NCCCC[C@H](NC(=O)[C@H](N)Cc1cn(C(c2ccccc2)c2ccccc2)cn1)C(=O)N[C@H](Cc1ccc(C)cc1)C(=O)N[C@@H](Cc1ccc(O)cc1)C(=O)O [HKFY-62, ((R)-2-((S)-2-((R)-2-amino-3-(1-benzhydryl-1H-imidazol-4-yl)propanamido)-6-octanamidohexanamido)-3-(p-tolyl)propanoyl)-L-tyrosine]
10.2 ± 1.51 -fold induction over basal	CCCCCCCC(=O)NCCCC[C@H](NC(=O)[C@@H](N)Cc1cn(C(c2ccccc2)c2ccccc2)cn1)C(=O)N[C@H](Cc1ccc(C)cc1)C(=O)N[C@@H](Cc1ccc(O)c(Cl)c1)C(=O)O [HKFY-67, (S)-2-((R)-2-((S)-2-((S)-2-amino-3-(1-benzhydryl-1H-imidazol-4-yl)propanamido)-6-octanamidohexanamido)-3-(p-tolyl)propanamido)-3-(3-chloro-4-hydroxyphenyl)propanoic acid] (H-[His(τ-CHPh2)]K(Octanoyl)[dPhe(4-Me)][Tyr(3-Cl)]-OH)
10.8 ± 1.41 -fold induction over basal	CCCCCCCC(=O)NCCCC[C@H](NC(=O)[C@@H](N)Cc1cn(C(c2ccccc2)c2ccccc2)cn1)C(=O)N[C@H](Cc1ccc(C)cc1)C(=O)N[C@@H](Cc1ccc(O)c([N+](=O)[O-])c1)C(=O)O [HKFY-68, (S)-2-((R)-2-((S)-2-((S)-2-amino-3-(1-benzhydryl-1H-imidazol-4-yl)propanamido)-6-octanamidohexanamido)-3-(p-tolyl)propanamido)-3-(4-hydroxy-3-nitrophenyl)propanoic acid] (H-[His(τ-CHPh2)]K(Octanoyl)[dPhe(4-Me)][Tyr(3-NO2)]-OH)
15.9 ± 4.12 -fold induction over basal	CCCCCCCC(=O)NCCCC[C@H](NC(=O)[C@@H](N)Cc1cn(S(=O)(=O)c2ccc(C)cc2)cn1)C(=O)N[C@H](Cc1ccc(C)cc1)C(=O)N[C@@H](Cc1ccc(O)cc1)C(=O)O [HKFY-75, ((R)-2-((S)-2-((S)-2-amino-3-(1-tosyl-1H-imidazol-4-yl)propanamido)-6-octanamidohexanamido)-3-(p-tolyl)propanoyl)-L-tyrosine]
11.2 ± 1.4 -fold induction over basal	CCCCCCCC(=O)NCCCC[C@H](NC(=O)[C@@H](N)Cc1cn(C(c2ccccc2)c2ccccc2)cn1)C(=O)O [HKFY-79, N2-(Nt-benzhydryl-L-histidyl)-N6-octanoyl-L-lysine]

target: T1, GPR39; assay: luciferase assay system (SRE luciferase reporter gene) for GPR39 in CV-1 cells; details: not given

SMILES	EC50 [µM]
CCCCCCCC(=O)NCCCC[C@H](NC(=O)[C@@H](N)Cc1c[n+](CCCC2CCCCC2)cn1CCCC1CCCCC1)C(=O)N[C@@H](Cc1ccccc1)C(=O)N[C@@H](Cc1ccc(O)cc1)C(=O)O	33.7 ± 1.3

same assay, conditions: CV-1 cells, GPR39 and SRE luciferase adenovirus, treated 6 hours, luminometer

SMILES	ECmax (-fold induction over basal)
CCCCCCCC(=O)NCCCC[C@H](NC(=O)[C@@H](N)Cc1c[n+](CCCc2ccccc2)cn1CCCc1ccccc1)C(=O)N[C@@H](Cc1ccccc1)C(=O)N[C@@H](Cc1ccc(O)cc1)C(=O)O	15 ± 2.12 -fold induction over basal
CCCCCCCC(=O)NCCCC[C@H](NC(=O)[C@@H](N)Cc1cncn1CCCC1CCCCC1)C(=O)N[C@@H](Cc1ccccc1)C(=O)N[C@@H](Cc1ccc(O)cc1)C(=O)O	16 ± 2.2 -fold induction over basal
CCCCCCCC(=O)NCCCC[C@H](NC(=O)[C@@H](N)Cc1c[n+](CCCC2CCCCC2)cn1CCCC1CCCCC1)C(=O)N[C@@H](Cc1ccccc1)C(=O)N[C@@H](Cc1ccc(O)cc1)C(=O)O	17.3 ± 1.22 -fold induction over basal
